Patent US4281009A, “Hydantoin derivatives” (Nippon Zoki Pharmaceutical Co., Ltd., priority 1978, dated 1981)

Experiments:
[1] = test system: SART stress mice; test: Inhibitory effects on increase of heart rate and elongation of QRS-time in SART stress mice; assay type: in vivo, mice (dd-strain male); settings: 9th day, Average ± S.D.
Description: (§1) SART stress animals used in the tests described below were raised according to a method of Kita, et al. [Folia Pharmacol. Japan.: 71, 195-210 (1975)].
2. Inhibitory effects on increase of heart rate and elongation of QRS-time in stress animals:
Groups of mice each comprising 11 or 12 dd-strain male mice were divided into three groups in the same manner as above and heart rate and QRS-time were determined on the 9th day after initiation of the tests.

[2] = test system: isolated duodenum; test: Recovery of acetylcholine sensitivity of isolated duodenum of SART stress mice (Magnus method); assay type: in vivo, mice (dd-strain male); settings: 6th day, Ach 10^-7 g/ml, Average ± S.E.
Text: as §1
3. Effect of recovering acetylcholine (Ach) sensitivity of isolated intestinal tract:
Groups each comprising at least 10 dd-strain male mice were used. The compounds of the present invention or other comparative drugs were given intraperitoneally once a day during the stress-causing operation. On the 6th day, Ach (10^-7 g/ml.) sensitivity of isolated duodenum was examined using the Magnus method.

[3] = test system: dd-strain male mice; test: Inhibitory effect on spontaneous motor activities (Animex method); assay type: in vivo; settings: after 60 minutes
Description: 4.1 Inhibitory effect on spontaneous motor activities:
Groups each comprising 8-16 dd-strain male mice were used. The compounds of the present invention were given intraperitoneally. After 60 minutes, spontaneous motor activities for 15 minutes were measured by the Animex method.

[4] = test system: dd-strain male mice; test: Inhibitory effect on exploratory movements; assay type: in vivo; settings: after 60 minutes
Description: 4.2. Inhibitory effect on exploratory movements:
Groups each comprising 16-35 dd-strain male mice were used. The compounds of the present invention were given intraperitoneally. After 60 minutes, exploratory movements for 15 minutes were measured with an exploratory movement recorder by a method of Tokyo Kyoiku University.

[5] = test system: normal mice and SART stress mice; test: Analgesic effect, tail pressure method (Randall-Selitto's device); assay type: in vivo, mice (ddY-strain male); settings: for change in vivo at 100 mg/kg / change in vivo at 160 mg/kg: Mus musculus; for change in vivo at 160 mg/kg: peroral 160 mg/kg
How it was run: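 Randall-Selitto tail pressure threshold measured 60 min after intraperitoneal dosing, expressed as post/pre-dose pressure ratio versus vehicle control (0.5% CMC-Na or 0.5% Tween 80, 10 ml/kg). For oral dosing, mean of readings at 30, 60, 90 and 120 min used.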

[6] = test system: normal mice and SART stress mice; test: Analgesic effect, acetic acid writhing method; assay type: in vivo; settings: Mus musculus, sc, 100 mg/Kg subcutaneously
How it was run: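 Normal mice and mice after 8 days of SART stress (5 per group) received 100 mg/Kg compound subcutaneously. Writhing was then induced with 0.7% acetic acid in isotonic saline, 0.1 ml/10 g i.p. Writhes were counted over 15 minutes and compared with control mice.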

[7] = test system: normal rats and SART stress rats; test: Analgesic effect, pain induced by Bradykinin; assay type: in vivo, rats (SD-strain male)
Description: 5.4 Method of measuring a pain induced by Bradykinin:
Groups each comprising 4-8 SD-strain male normal rats and SART stress rats to which SART stress had been applied for 4 days were used. The tests were carried out according to the method of Deffenu et al. [Deffenu, G., Pegrassi, L., & Fumachi. B.; J. Pharm. Pharmacol.; 18, 135 (1966)] and Blane method [Blane, G. F.; J. Pharm. Pharmacol.; 19, 367 (1967)]. The effect judged was shown by ratio of the rats in which the effect was recognized according to the method of Abe, et al. [Abe, Kaneko & Takagi; Folia Pharmacol. Japon.; 67, 9-14 (1971)].

[8] = test system: dd-strain male mice; test: Antiulcerogenic effect on Takagi's restraint-plus-water-immersing ulcer; assay type: in vivo; settings: Mus musculus, ip; for inhibition in vivo at 75 mg/kg: 75 mg/kg intraperitoneal; for inhibition in vivo at 125 mg/kg: 125 mg/kg intraperitoneal
Description: 6.1 Antiulcerogenic effect on Takagi's restraint-plus-water-immersing ulcer: Groups each comprising 8-26 dd-strain male mice were used. The tests were carried out according to a method of Takagi, et al. [Chem. Pharm. Bull.; 12, 465 (1964)]. Sum of length of diseased parts in the glandular stomach was measured and it was compared with that of control group. The compounds of the present invention or DPH was given intraperitoneally immediately before the restraint and immersion in water.

[9] = test system: Wistar-strain male rats; test: Antiulcerogenic effect on Shay's ulcer (operative ulcer); assay type: in vivo; settings: 10 times
Description: 6.2. Antiulcerogenic effect on Shay's ulcer (operative ulcer):
Tests were carried out by using groups of rats each comprising 5-10 Wistar-strain male rats according to Shay method [Shay Harry; Gastroenterology,; 5, 43 (1945)]. Ulcers in the anterior stomach were classified on the following basis:
2. 1-5 small ulcers (diameter of less than 3 mm)
3. 6 or more small ulcers or one big ulcer (diameter of more than 3 mm)
4. two or more big ulcers

[10] = test system: ddY-strain male mice; test: Effect of prolongation of sleeping time (hexobarbital); assay type: in vivo; settings: for change in vivo at 100 mg/kg / change in vivo at 300 mg/kg: Mus musculus, ip; for change in vivo at 100 mg/kg: 100 mg/kg intraperitoneal; for change in vivo at 300 mg/kg: 300 mg/kg intraperitoneal
How it was run: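 Groups of 10 male ddY mice received compounds intraperitoneally along with intraperitoneal sodium hexobarbital. Loss of righting reflex was timed, and prolongation was measured against control mice.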

[11] = ip, 1 h, SART stress mice, intraperitoneal 100 mg/kg, 60 minutes
[12] = ip, 1 h, normal mice, intraperitoneal 100 mg/kg, 60 minutes
[13] = po, SART stress mice, peroral 100 mg/kg, average of 30, 60, 90 and 120 minutes
[14] = po, SART stress mice, average of 30, 60, 90 and 120 minutes
[15] = po, normal mice, peroral 100 mg/kg, average of 30, 60, 90 and 120 minutes
[16] = po, normal mice, average of 30, 60, 90 and 120 minutes
[17] = SART stress mice, intraperitoneal 50 mg/kg, 60 minutes
[18] = normal mice, intraperitoneal 50 mg/kg, 60 minutes
[19] = SART stress rats, intraperitoneal 100 mg/kg
[20] = SART stress rats, peroral 100 mg/kg
[21] = normal rats, intraperitoneal 100 mg/kg
[22] = SART stress mice, peroral 50 mg/kg, average of 30, 60, 90 and 120 minutes
[23] = normal mice, peroral 50 mg/kg, average of 30, 60, 90 and 120 minutes

Row | SMILES | Ach-induced contraction of the isolated deodedum ([2]; 10 mg/kg/day intraperitoneal) | Inhibitory effect on spontaneous motor activities ([3]; 50 mg/kg intraperitoneal) | Inhibitory effect on spontaneous motor activities ([3]; 100 mg/kg intraperitoneal) | Inhibitory effect on exploratory movements ([4]; 50 mg/kg intraperitoneal) | Inhibitory effect on exploratory movements ([4]; 100 mg/kg intraperitoneal) | change in vivo at 100 mg/kg [5, 11] | change in vivo at 100 mg/kg [5, 12] | change in vivo at 100 mg/kg [5, 13] | change in vivo at 100 mg/kg [5, 15] | Analgesic effect [5, 17] | Analgesic effect [5, 18] | inhibition in vivo at 100 mg/kg ([6]; SART stress mice) | inhibition in vivo at 100 mg/kg ([6]; normal mice) | Analgesic effect [7, 19] | Analgesic effect [7, 20] | Analgesic effect [7, 21] | Analgesic effect ([7]; normal rats, peroral 100 mg/kg) | Antiulcerogenic effect on Shay's ulcer (operative ulcer) ([9]; 100 mg/kg intraperitoneal) | Antiulcerogenic effect on Shay's ulcer (operative ulcer) ([9]; 150 mg/kg intraperitoneal) | change in vivo at 100 mg/kg [10] | further results
1 | COc1ccc(C2(c3ccc(OC)c(Cl)c3)NC(=O)NC2=O)cc1 (stereo not shown) [Compound 2, 5-(3-chloro-4-methoxyphenyl)-5-(4-methoxyphenyl)hydantoin] | 80 ± 13% | 39.8% | 50.1% | 29.0% | 38.8% | 139% | 90.7% | 70% | 37.3% | 79.6% | 54.6% | 27.1% | 4.4% | 75% | 30% | 66.7% | 10% | 23.4% | 29.3% | 55.9% | Heart rate ([1]; 50 mg/kg/day): 698 ± 42 min⁻¹; QRS-time ([1]; 50 mg/kg/day): 12.9 ± 0.8 1/1000 sec; Inhibitory effect on spontaneous motor activities ([3]; 125 mg/kg intraperitoneal): 56.3%; Inhibitory effect on exploratory movements ([4]; 125 mg/kg intraperitoneal): 47.8%; change in vivo at 160 mg/kg [5, 14]: 88.2%; change in vivo at 160 mg/kg [5, 16]: 50.2%; inhibition in vivo at 75 mg/kg [8]: 15.4%; inhibition in vivo at 150 mg/kg ([8]; 150 mg/kg intraperitoneal): 36.6%; change in vivo at 300 mg/kg [10]: 248%
2 | O=C1NC(=O)C(c2ccc(O)cc2)(c2ccc(O)cc2)N1 [Compound 4, 5,5-Bis(4-hydroxyphenyl)hydantoin] | 95 ± 10% | 42.4% | 61.4% | 30.1% | 54.5% | 162% | 41.6% | 67.3% | 52.3% | 88.2% | 36.1% | 33.6% | 4.8% | 100% | 40% | 100% | 0% | 50.0% | 64.8% | 124% | Heart rate ([1]; 37.5 mg/kg/day): 683 ± 61 min⁻¹; QRS-time ([1]; 37.5 mg/kg/day): 12.2 ± 0.8 1/1000 sec; Ach-induced contraction of the isolated deodedum ([2]; 5 mg/kg/day intraperitoneal): 61 ± 16%; Inhibitory effect on spontaneous motor activities ([3]; 75 mg/kg intraperitoneal): 52.2%; Inhibitory effect on exploratory movements ([4]; 125 mg/kg intraperitoneal): 61.3%; change in vivo at 160 mg/kg [5, 14]: 90.5%; change in vivo at 160 mg/kg [5, 16]: 68.2%; Analgesic effect [5, 22]: 56.8%; Analgesic effect [5, 23]: 38.8%; inhibition in vivo at 25 mg/kg ([8]; 25 mg/kg intraperitoneal): 14.2%; inhibition in vivo at 75 mg/kg [8]: 39.1%; inhibition in vivo at 125 mg/kg [8]: 53%; Antiulcerogenic effect on Shay's ulcer (operative ulcer) ([9]; 25 mg/kg intraperitoneal): 26.4%; Antiulcerogenic effect on Shay's ulcer (operative ulcer) ([9]; 50 mg/kg intraperitoneal): 38.0%; Effect of prolongation of sleeping time ([10]; 20 mg/kg intraperitoneal): 37.2%; Effect of prolongation of sleeping time ([10]; 50 mg/kg intraperitoneal): 84.4%
3 | O=C1NC(=O)C(c2cc(O)c(O)c(O)c2)(c2cc(O)c(O)c(O)c2)N1 [Compound 36, 5,5-Bis(3,4,5-trihydroxyphenyl)hydantoin] | 83 ± 8% | 37.8% | 49.1% | 30.6% | 36.7% | 180% | 67% | 102% | 49.9% | 120.5% | 44.0% | 29.4% | 8.2% | 50% | 33.3% | 33.3% | 10% | 30.1% | 43.9% | 11.3% | Heart rate ([1]; 100 mg/kg/day): 737 ± 65 min⁻¹; QRS-time ([1]; 100 mg/kg/day): 13.8 ± 1.2 1/1000 sec; Analgesic effect [5, 22]: 63.3%; Analgesic effect [5, 23]: 40.3%; inhibition in vivo at 125 mg/kg [8]: 31.2%; change in vivo at 300 mg/kg [10]: 46.7%
